Data as given in ChEMBL document CHEMBL1649470 (Antimicrob Agents Chemother, 2009).
Calls of active or inactive are those of the source. The rule behind the calls is not given here.

Legend:
[1] = test system: Influenza A virus; assay: Antiviral activity against Influenza A virus (A/Thailand/1(KAN-1)/2004(H5N1)) infected in BALB/c mouse assessed as decrease in viral load in lung at 20 mg/kg, po BID for 5 days measured on day 9 postinfection; format: functional, organism-based; set-up: dose 20 mg/kg
[2] = test system: Influenza A virus; assay: Antiviral activity against Influenza A virus (A/chicken/Yogjakarta/BBVet-IX/2004(H5N1)) infected in BALB/c mouse assessed as virus-induced change body weight at 20 mg/kg, po BID for 5 days measured on day 9 postinfection; format: functional
[3] = test system: Influenza A virus; assay: Antiviral activity against Influenza A virus (A/whooper swan/Mongolia/1/2009(H5N1)) infected in BALB/c mouse assessed as virus-induced change body weight at 20 mg/kg, po BID for 5 days measured on day 9 postinfection; format: functional
[4] = test system: Influenza A virus; assay: Antiviral activity against Influenza A virus (A/duck/Laos/25/2006(H5N1)) infected in BALB/c mouse assessed as virus-induced change body weight at 20 mg/kg, po BID for 5 days measured on day 9 postinfection; format: functional
[5] = test system: Influenza A virus; assay: Antiviral activity against Influenza A virus (A/Thailand/1(KAN-1)/2004(H5N1)) infected in BALB/c mouse assessed as virus-induced change body weight at 20 mg/kg, po BID for 5 days measured on day 15 postinfection; format: functional
[6] = test system: Influenza A virus; assay: Antiviral activity against Influenza A virus (A/duck/Laos/25/2006(H5N1)) infected in BALB/c mouse assessed as decrease in viral load in lung at 20 mg/kg, po BID for 5 days measured on day 3 postinfection; format: functional, organism-based; set-up: dose 20 mg/kg
[7] = test system: Influenza A virus; assay: Antiviral activity against Influenza A virus (A/chicken/Yogjakarta/BBVet-IX/2004(H5N1)) infected in BALB/c mouse assessed as virus-induced change body weight at 20 mg/kg, po BID for 5 days measured on day 15 postinfection; format: functional
[8] = test system: Influenza A virus; assay: Antiviral activity against Influenza A virus (A/whooper swan/Mongolia/1/2009(H5N1)) infected in BALB/c mouse assessed as virus-induced change body weight at 20 mg/kg, po BID for 5 days measured on day 15 postinfection; format: functional
[9] = test system: Influenza A virus; assay: Antiviral activity against Influenza A virus (A/duck/Laos/25/2006(H5N1)) infected in BALB/c mouse assessed as virus-induced change body weight at 20 mg/kg, po BID for 5 days measured on day 15 postinfection; format: functional
[10] = test system: Influenza A virus; assay: Antiviral activity against Influenza A virus (A/chicken/Yogjakarta/BBVet-IX/2004(H5N1)) infected in BALB/c mouse assessed as decrease in viral load in lung at 20 mg/kg, po BID for 5 days measured on day 9 postinfection; format: functional, organism-based; set-up: dose 20 mg/kg
[11] = test system: Influenza A virus; assay: Antiviral activity against Influenza A virus (A/whooper swan/Mongolia/1/2009(H5N1)) infected in BALB/c mouse assessed as decrease in viral load in lung at 20 mg/kg, po BID for 5 days measured on day 9 postinfection; format: functional, organism-based; set-up: dose 20 mg/kg
[12] = test system: Influenza A virus; assay: Antiviral activity against Influenza A virus (A/Thailand/1(KAN-1)/2004(H5N1)) infected in BALB/c mouse assessed as decrease in viral load in lung at 20 mg/kg, po BID for 5 days measured on day 6 postinfection; format: functional, organism-based; set-up: dose 20 mg/kg
[13] = test system: Influenza A virus; assay: Antiviral activity against Influenza A virus (A/duck/Laos/25/2006(H5N1)) infected in BALB/c mouse assessed as decrease in viral load in brain at 20 mg/kg, po BID for 5 days measured on day 9 postinfection; format: functional, organism-based; set-up: dose 20 mg/kg
[14] = test system: Influenza A virus; assay: Antiviral activity against Influenza A virus (A/Thailand/1(KAN-1)/2004(H5N1)) infected in BALB/c mouse assessed as decrease in viral load in brain at 20 mg/kg, po BID for 5 days measured on day 9 postinfection; format: functional, organism-based; set-up: dose 20 mg/kg
[15] = test system: Influenza A virus; assay: Antiviral activity against Influenza A virus (A/chicken/Yogjakarta/BBVet-IX/2004(H5N1)) infected in BALB/c mouse assessed as decrease in viral load in brain at 20 mg/kg, po BID for 5 days measured on day 9 postinfection; format: functional, organism-based; set-up: dose 20 mg/kg
[16] = test system: Influenza A virus; assay: Antiviral activity against Influenza A virus (A/whooper swan/Mongolia/1/2009(H5N1)) infected in BALB/c mouse assessed as decrease in viral load in brain at 20 mg/kg, po BID for 5 days measured on day 3 postinfection; format: functional, organism-based; set-up: dose 20 mg/kg
[17] = test system: Influenza A virus; assay: Antiviral activity against Influenza A virus (A/whooper swan/Mongolia/1/2009(H5N1)) infected in BALB/c mouse assessed as decrease in viral load in brain at 20 mg/kg, po BID for 5 days measured on day 6 postinfection; format: functional, organism-based; set-up: dose 20 mg/kg
[18] = test system: Influenza A virus; assay: Antiviral activity against Influenza A virus (A/whooper swan/Mongolia/1/2009(H5N1)) infected in BALB/c mouse assessed as decrease in viral load in brain at 20 mg/kg, po BID for 5 days measured on day 9 postinfection; format: functional, organism-based; set-up: dose 20 mg/kg
[19] = test system: Influenza A virus; assay: Antiviral activity against Influenza A virus (A/Thailand/1(KAN-1)/2004(H5N1)) infected in BALB/c mouse assessed as survival rate at 20 mg/kg, po BID for 5 days measured post last dose; format: functional; settings: 120 h
[20] = test system: Influenza A virus; settings: 120 h, route oral
[21] = test system: Influenza A virus; assay: Antiviral activity against Influenza A virus (A/chicken/Yogjakarta/BBVet-IX/2004(H5N1)) infected in BALB/c mouse assessed as survival rate at 20 mg/kg, po BID for 5 days measured post last dose; format: functional; settings: 120 h
[22] = test system: Influenza A virus; assay: Antiviral activity against Influenza A virus (A/whooper swan/Mongolia/1/2009(H5N1)) infected in BALB/c mouse assessed as survival rate at 20 mg/kg, po BID for 5 days measured post last dose; format: functional; settings: 120 h
[23] = test system: Influenza A virus; assay: Antiviral activity against Influenza A virus (A/duck/Laos/25/2006(H5N1)) infected in BALB/c mouse assessed as survival rate at 20 mg/kg, po BID for 5 days measured post last dose; format: functional; settings: 120 h
[24] = test system: Influenza A virus; assay: Antiviral activity against Influenza A virus (A/Thailand/1(KAN-1)/2004(H5N1)) infected in BALB/c mouse assessed as mean day to death at 20 mg/kg, po BID for 5 days measured post last dose; format: functional
[25] = test system: Influenza A virus; settings: dose 20 mg/kg; route oral
[26] = test system: Influenza A virus; assay: Antiviral activity against Influenza A virus (A/chicken/Yogjakarta/BBVet-IX/2004(H5N1)) infected in BALB/c mouse assessed as mean day to death at 20 mg/kg, po BID for 5 days measured post last dose; format: functional
[27] = test system: Influenza A virus; assay: Antiviral activity against Influenza A virus (A/whooper swan/Mongolia/1/2009(H5N1)) infected in BALB/c mouse assessed as mean day to death at 20 mg/kg, po BID for 5 days measured post last dose; format: functional
[28] = test system: Influenza A virus; assay: Antiviral activity against Influenza A virus (A/duck/Laos/25/2006(H5N1)) infected in BALB/c mouse assessed as mean day to death at 20 mg/kg, po BID for 5 days measured post last dose; format: functional
[29] = test system: Influenza A virus; assay: Antiviral activity against Influenza A virus (A/Thailand/1(KAN-1)/2004(H5N1)) infected in BALB/c mouse assessed as virus-induced change body weight at 20 mg/kg, po BID for 5 days measured on day 6 postinfection; format: functional
[30] = test system: Influenza A virus; settings: dose 20 mg/kg; route oral; remark: listed apart in the source
[31] = test system: Influenza A virus; assay: Antiviral activity against Influenza A virus (A/chicken/Yogjakarta/BBVet-IX/2004(H5N1)) infected in BALB/c mouse assessed as virus-induced change body weight at 20 mg/kg, po BID for 5 days measured on day 6 postinfection; format: functional
[32] = test system: Influenza A virus; assay: Antiviral activity against Influenza A virus (A/whooper swan/Mongolia/1/2009(H5N1)) infected in BALB/c mouse assessed as virus-induced change body weight at 20 mg/kg, po BID for 5 days measured on day 6 postinfection; format: functional
[33] = test system: Influenza A virus; assay: Antiviral activity against Influenza A virus (A/duck/Laos/25/2006(H5N1)) infected in BALB/c mouse assessed as virus-induced change body weight at 20 mg/kg, po BID for 5 days measured on day 6 postinfection; format: functional
[34] = test system: Influenza A virus; assay: Antiviral activity against Influenza A virus (A/Thailand/1(KAN-1)/2004(H5N1)) infected in BALB/c mouse assessed as virus-induced change body weight at 20 mg/kg, po BID for 5 days measured on day 9 postinfection; format: functional

CCOC(=O)C1=C[C@@H](OC(CC)CC)[C@H](NC(C)=O)[C@@H](N)C1 [OSELTAMIVIR]
Activity [1]: Active
Activity [2]: -11.2%
Activity [3]: -18.2%
Activity [4]: -20.3%
Activity [5]: -2.1%
inhibition [6]: Active
Activity [7]: 1.2%
Activity [8]: -10.6%
Activity [9]: -7.6%
Activity [10]: Active
Activity [11]: Active
Activity [12]: Active
Activity [13]: Active
Activity [14]: inactive
Activity [15]: Active
Activity [16]: inactive
Activity [17]: inactive
Activity [18]: inactive
survival at 20 mg/kg [19]: 80%
survival at 20 mg/kg [20]: 0%
survival at 20 mg/kg [21]: 100%
survival at 20 mg/kg [22]: 70%
survival at 20 mg/kg [23]: 60%
Time [24]: 10 days
Time [25]: 8 days
Time [26]: >21 days
Time [27]: 9.7 days
Time [28]: 13.5 days
Activity [29]: -10.7%
Activity [30]: -24.4%
Activity [31]: -22%
Activity [32]: -7%
Activity [33]: -0.2%
Activity [34]: -17.6%
